Source: patent publication US8895695B2, “Template-fixed beta-hairpin peptidomimetics with CXCR4 antagonizing activity” (priority 2003, dated 2014)

Experiments:
[1] = tested on: human red blood cells (hRBC); experiment: Hemolysis; type: cell-based
In short: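 Percent lysis taken as OD540 of peptide-treated sample over OD540 of the water/0.1% Triton X-100 full-lysis control, with PBS giving 0%. Peptides at 100 μM exposed to PBS-washed human RBCs (20% v/v) for 1 hour at 37° C. before centrifugation and 20-fold dilution of supernatant.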

in vitro = in vitro ADME; details: plasma
Experimental: 405 μl of plasma/albumin solution were placed in a polypropylene (PP) tube and spiked with 45 μl of compound from a 100 μM solution B, derived from 135 μl of PBS and 15 μl of 1 mM peptide in PBS, pH 7.4. 150 μl aliquots were transferred into individual wells of the 10 kDa filter plate (Millipore MAPPB 1010 Biomax membrane). For “0 minutes controls”: 270 μl of PBS were placed in a PP tube and 30 μl of stock solution B was added and vortexed. 150 μl of control solution was placed into one well of the filter plate and serves as “filtered control”.
Further 150 μl of control solution were placed directly into a receiver well (reserved for filtrate) and serve as “not-filtered control”. The entire plate including evaporation lid was incubated for 60 min at 37° C. Plasma samples (rat plasma: Harlan Sera lab UK, human plasma: Blutspendezentrum Zürich) were centrifuged at least for 2 h at 4300 rpm (3500 g) and 15° C. in order to yield 100 μl filtrate. For “serum albumin”-samples (freshly prepared human albumin: Sigma A-4327, rat albumin: Sigma A-6272, all at 40 mg/ml concentration in PBS) approximately 1 hour of centrifugation is sufficient. The filtrates in the receiver PP plate were analysed by LC/MS as followes: Column: Jupiter C18 (Phenomenex), mobile phases: (A) 0.1% formic acid in water and (B) acetonitrile, gradient: 5%-100% (B) in 2 minutes, electrospray ionization, MRM detection (triple quadrupole). The peak areas were determined and triplicate values are averaged. The binding is expressed in percent of the (filtered and not-filtered time point 0 min) control 1 and 2 by: 100−(100*T60/T0). The average from these values is then calculated (see ref. 9 below).

[2] = Cytotoxicity assay (MTT reduction), HELA cells; details: human, HELA cells (Acc57);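 further: MTT reduction read as absorbance at 595 nm, blank-corrected and expressed as percent growth relative to the time-zero cell reading, triplicate wells per concentration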
Experimental: Each peptide concentration was assayed in triplicate. […] Wells were then washed once with PBS and subsequently 100 μl MTT reagent (0.5 mg/mL in medium RPMI1640 and, respectively, DMEM) was added to the wells. This was incubated at 37° C. for 2 hours and subsequently the medium was aspirated and 100 μl isopropanol was added to each well. […] For each concentration averages were calculated from triplicates. The percentage of growth was calculated as follows: (OD595peptide-OD595Tz-OD595Empty well)/(OD595Tz-OD595Empty well)×100% and was plotted for each peptide concentration.
‘CCR5’ cells were cultured in DMEM medium with 4500 mg/ml glucose, 10% fetal bovine serum (FBS), supplemented with 50 U/ml Penicillin and 50 μg/ml Streptomycin (Pen/Strept.). Hut/4-3 cells were maintained in RPMI medium, 10% FBS, supplemented with Pen/Strept. and 10 mM HEPES. HELA cells and CCRF-CEM cells were maintained in RPMI1640 plus 5% FBS, Pen/Strept and 2 mM L-Glutamine. Cos-7 cells were grown in DMEM medium with 4500 mg/ml glucose supplemented with 10% FCS, Pen/Strept. and 2 mM L-Glutamine. All cell lines were grown at 37° C. at 5% CO2.

N=C(N)NCCC[C@@H]1NC(=O)[C@@H]2CSSC[C@H](NC(=O)[C@H](Cc3ccc4ccccc4c3)NC(=O)[C@H](CCCNC(=N)N)NC(=O)[C@H](CCCNC(=N)N)NC(=O)[C@H]3CCCN3C(=O)CNC1=O)C(=O)N[C@@H](Cc1ccc(O)cc1)C(=O)N[C@@H](CCCNC(N)=O)C(=O)N[C@@H](CCCCN)C(=O)N1CCC[C@@H]1C(=O)N1CCC[C@H]1C(=O)N[C@@H](Cc1ccc(O)cc1)C(=O)N[C@@H](CCCNC(=N)N)C(=O)N[C@@H](CCCNC(N)=O)C(=O)N2 [Ex. 51]
Hemolysis at 100 μM [1]: 0%
half-life at 10 μM (in vitro; human): 4.77 h
half-life at 10 μM (in vitro; rat): > 5 h
CC50 at 48 h [2]: 97 µM
